The test system of one assay is gastric acid secretion. The assay is described as follows: Gastric acid secretion inhibition, modified Shay rat procedure. In kind it is in vivo, rats (male, CFE strain). The settings on record: Rattus norvegicus, read-out: Percent inhibition of gastric acid secretion. An excerpt: The novel compounds of the present invention are effective inhibitors of gastric acid secretion and of ulcer development in experimental animals, and thus are potentially valuable as agents for the control of gastric secretion and of gastric erosion and as anti-ulcer agents. Gastric acid secretion inhibitory action is usually measured by the "Shay rat" procedure ^(1,2) with some modifications as follows.
(1) Shay et al., Gastroenterology, 5, 43 (1945).
The rats (male, CFE strain) were starved for 48 hours (water was given ad libitum) to permit evacuation of stomach contents. On the morning of the experiment, under ether anesthesia, the abdominal region was shaved and a midline incision (1-11/2" ) was made with a scapel. With the help of a closed curved hemostat the duodenum was picked up. Upon getting the duodenum into view, fingers were used to pull the stomach through the opening, the stomach was then gently manipulated with fingers to rid stomach of air and residual matter which were pushed through the pylorus. Two-5 inch sutures were drawn under the pyloric-duodenal puncture. A ligature at the juncture, was formed with one of the threads. The second ligature was also formed but not tightened.
The test compound or the vehicle, usually 1 ml./100 g. body weight, were injected into the duodenum as close as possible to the first ligature. After injection the second ligature was tightened below the injection site to minimize leakage. The stomach was placed back through the opening into the abdominal cavity, the area of incision was washed with saline and the incision was closed with autoclips. (Occasionally, instead of an intraduodenal injection, animals were dosed by the oral or subcutaneous route. In the latter case, dosing was done thirty to sixty minutes before the operation.)
The abdominal cavity was exposed by cutting with scissors and the esophagus close to the stomach was clamped off with a hemostat, the stomach was removed by cutting above the hemostat (the esophagus was cut) and between the two sutures. Extraneous tissue was removed, the stomach washed with saline and blotted on gauze. A slit was carefully made in the stomach which was held over a funnel and the contents were collected in a centrifuge tube. The stomach was further cut along the outside edge and turned inside out. Two ml. H2 O were used to wash the stomach contents into the respective centrifuge tube. The combined stomach contents and wash were then centrifuged out for 10 minutes in the International Size 2 Centrifuge (setting at 30). The supernatant was collected, volume measured and recorded, 2 drops of a phenylphthalein indicator (1% in 95% ethanol) were added and the solution was titrated with 0.02 N NaOH (or with 0.04 N NaOH when large volumes of stomach contents were encountered) to pH 8.4 (because of usual coloring of the stomach contents, phenolphthalein was only used to permit visual indication that the end point was near) and the amount of acid present was calculated.
Compounds inducing inhibition of gastric acid secretion of 20% or more were considered active. In a representative operation, and merely by way of illustration, the results obtained with this assay with typical compounds of the present invention are given in Table II below.

The subject of assay [1] is basal gastric acid secretion. The assay is described as follows: Inhibition of total acid output (basal gastric acid secretion) in the acute gastric fistula rat. It counts as in vivo, female Sprague-Dawley rats. The settings on record: intraduodenal; for inhibition in vivo at 10 mg/kg / inhibition in vivo at 2.5 mg/kg / inhibition in vivo at 5 mg/kg: Rattus norvegicus. On the procedure:
Inhibition of basal gastric acid secretion can be determined by the following procedure.
Female Sprague-Dawley rats weighing 140-160 grams are fasted in individual cages for 18-24 hours. The rats are then lightly anesthetized with ether and their front teeth extracted to avoid destruction of the plastic cannula. A midline incision is then made and the stomach and duodenum exposed. A flanged polyvinyl tube is inserted into the fundic portion of the stomach and secured with a purse string suture line using 4-O Mersilene. The rat is then dosed by injection of the compound into the duodenum (1.0 ml. per 100 gram body weight). After dosing, the abdominal wall and skin are closed using metal wound clips. The rat is replaced in a cage containing a longitudinal slit to allow the polyvinyl tube to hang freely. An 8 ml. plastic collecting tube is attached to the flanged cannula and hangs freely below the cage. The first 30 minute sample is discarded designating this time as zero. The collecting tube is attached again and samples removed at the end of 60 and 120 minutes. These samples are referred to as "A" and "B" in the table. The hourly samples are then transferred to a 15 ml. centrifuge and centrifuged for 5-10 minutes. Total and sediment volume are then recorded with the supernatent volume being used as volume of secretion. A 1 ml. or less aliquot is then removed and placed in a 50 ml. beaker containing 10 ml. of distilled water. This sample is then titrated using 0.01 N NaPH to pH 7.0 using a Beckman zeromatic pH meter. Volume, titratable acidity (mew/L) and total acid output (ueq/hour) are recorded. Percent inhibition is determined by comparison with the appropriate control. Groups of three rats were used for preliminary testing, and groups of six rats were used for dose-response evaluations. All compounds are administered in a vehicle consisting of 0.5% methocel, 0.4% tween 80, and saline at a constant volume of 1 ml./100 gram rat. Samples are dispersed by sonification. Percent inhibition is calculated on basis of concurrent vehicle control.
In Table III which follows is given the effect on total acid output after 60 minutes and 120 minutes of intraduodenal dose, of representative compounds of this invention.

Assay [2] concerns ulcerogenic effects induced by indomethacin (stomach ulcers). It counts as in vivo, rat. To be noted: indomethacin 20 mg/kg s.c., score 0-4. On the procedure:
It is further to be noted that although prostaglandins in general are not effective when administered by oral route, the compounds of this invention are effective orally. The assay to determine the protective effect of these compounds is carried out in the following manner.
Rats were starved for 48 hours (water was given ad libitum). Indomethacin (20 mg./kg. of body weight) was administered by the subcutaneous route and one-half the dose of the test compound was administered by gavage at the same time. After three hours, the second half of the test compound was administered, also by gavage. Five hours after the administration of indomethacin the animals were decapitated and the stomachs removed. The stomachs were washed with distilled water, blotted on gauze, cut along the larger curvature, and the contents rinsed with distilled water. The stomachs were spread out, pinned on a cork and visualized under magnifying glass for ulcers. The criteria for scoring of ulcers was as previously reported. [Abdel-Galil et al. Brit. J. Pharmac. Chemotherapy 33:1-14 (1968)]. […]
1 Petechial hemorrhage of pin point ulcers
3 Many ulcers, a few large
4 Many ulcers, mainly large
Control animals treated with indomethacin but not test compound consistently give scores of about 2.5-3.5. Control animals treated with neither indomethacin not test compound give scores of about 0.5-0.8. Compounds diminishing the control ulcer score by 0.5 unit or more are considered to be active.

Where [3] appears, read: 1 h, 10 mg/kg, 60 min, read-out: % Inhibition of total acid output, after 60 minutes (A).
Where [4] appears, read: 2 h, 10 mg/kg, 120 min, read-out: % Inhibition of total acid output, after 120 minutes (B).
The mark [5] stands for this setting: 1 h, 60 min, read-out: % Inhibition of total acid output, after 60 minutes (A).
Setting [6] is: 2 h, 120 min, read-out: % Inhibition of total acid output, after 120 minutes (B).
Where [7] appears, read: total oral dose 50 mg/kg, controls 2.5-3.2.
Where [8] appears, read: total oral dose 25 mg/kg, controls 2.7-3.9.

Like-named read-outs stand apart in the source and are kept apart here.

In the case of `CCCCC[C@H](O)/C=C/[C@H]1[C@H](C(C)(C)O)CC(=O)[C@@H]1C/C=C\CCCC(=O)O` [11-deoxy-11α-(1-hydroxy-1-methylethyl)prostaglandin-E2], the inhibition in vivo at 8 mg/kg in the assay on gastric acid secretion (sc, subcutaneous, 8 mg/kg) came out at 31%. Turning to `CCCCC[C@H](O)/C=C/[C@@H]1[C@@H](C/C=C\CCCC(=O)O)[C@@H](O)C[C@H]1C(C)(C)O` [11-deoxy-11α-(1-hydroxy-1-methylethyl)prostaglandin-F2α], the inhibition in vivo at 10 mg/kg in assay [1] (setting [3]) is 36%; in assay [1] (setting [4]) it was 35%. As for `CCCCC[C@@H](/C=C/[C@H]1[C@H](SCC)CC(=O)[C@@H]1C/C=C\CCCC(=O)OC)OC(C)=O` [11-deoxy-11α-ethylthio-15-O-acetyl prostaglandin E2 methyl ester], the inhibition in vivo at 2.5 mg/kg in assay [1] (setting [5]) is 54%; in assay [1] (setting [6]), 51%. Further, the results for the inhibition in vivo at 5 mg/kg in assay [1] (setting [5]) and in assay [1] (setting [6]) were 19% and 59%, respectively. The inhibition in vivo at 10 mg/kg in assay [1] (setting [3]) came out at 80%; in assay [1] (setting [4]) it was 24%. Further, the inhibition in vivo at 50 mg/kg in the assay with gastric acid secretion (intraduodenal) worked out at 27%.

Turning to `CCCCCC(C)/C=C/[C@H]1[C@H](C)CC(=O)[C@@H]1C/C=C\CCCC(=O)OC` (stereo partly drawn) [11-deoxy-11α-methyl-15-deoxy-15-methylprostaglandin E2 methyl ester], in the assay on gastric acid secretion (intraduodenal), the inhibition in vivo at 50 mg/kg came to 40%. Turning to `CCCCC[C@H](O)/C=C/[C@@H]1[C@@H](C/C=C\CCCC(=O)O)[C@@H](O)C[C@H]1C(N)=O` [11α-carboxamido-11-deoxyprostaglandin F2α], the “Ulcer score, treated animals” value in assay [2] (setting [7]) is recorded as 2.3. Further, the inhibition in vivo at 50 mg/kg in the assay on gastric acid secretion (intraduodenal) is 27%.

Regarding `CCCCC[C@H](O)/C=C/[C@@H]1[C@@H](C/C=C\CCCC(=O)O)[C@@H](O)C[C@H]1C(C)C` [11α-isopropyl-11-deoxyprostaglandin F2α], the figures for the inhibition in vivo at 10 mg/kg in assay [1] (setting [3]) and in assay [1] (setting [4]) were 44% and 35%, respectively. As for `CCCCC[C@H](O)/C=C/[C@H]1[C@H](C[N+](=O)[O-])C[C@H](O)[C@@H]1C/C=C\CCCC(=O)O` [11α-nitromethyl-11-deoxyprostaglandin F2α], in assay [2] (setting [7]), the “Ulcer score, treated animals” value is 1.8. Further, the inhibition in vivo at 50 mg/kg in the assay with gastric acid secretion (intraduodenal) was 38%. Turning to `CCCCC[C@H](O)/C=C/[C@H]1C(C#N)CC(=O)[C@@H]1C/C=C\CCCC(=O)OC` (stereo partly drawn) [11α/β-cyano-11-deoxyprostaglandin E2 methyl ester], in assay [2] (setting [8]), the “Ulcer score, treated animals” value worked out at 1.3. In addition, in the assay with gastric acid secretion (intraduodenal), the inhibition in vivo at 50 mg/kg stood at 33%. Turning to `CCCCCC(C)/C=C/[C@@H]1[C@@H](C/C=C\CCCC(=O)O)[C@@H](O)C[C@H]1C` (stereo partly drawn) [l-9α-hydroxy-11α,15-dimethyl-S--cis,13-trans-prostadienoic acid], the inhibition in vivo at 10 mg/kg in assay [1] (setting [3]) worked out at 25%; in assay [1] (setting [4]), 20%.

Regarding `CCCCCC(O)/C=C/C1C(S)CC(O)C1C/C=C\CCCC(=O)O` (stereo not drawn) [l-11-mercapto-11-deoxprostaglandin-F2 α, l-11-deoxy-11α-mercaptoprostaglandin-F2 α], the “% Inhibition of total acid output, after 60 minutes (A)” value in assay [1] (10 mg/kg, 60 min) was 44%. In addition, the “% Inhibition of total acid output, after 120 minutes (B)” value in assay [1] (10 mg/kg, 120 min) was 55%. Turning to `CCCCCC(C)/C=C/C1C(C)CC(=O)C1C/C=C\CCCC(=O)O` (stereo not drawn) [l-11α,15-dimethyl-11,15-bis-deoxyprostaglandin-E2 α], the “Ulcer score, treated animals” value in assay [2] (setting [7]) is on record as 2.2. Turning to `CCCCC[C@H](O)/C=C/[C@H]1[C@H](CC)C[C@H](O)[C@@H]1C/C=C\CCCC(=O)O` [l-11α-ethyl-11-deoxyprostaglandin-F2 α, 11α-ethyl-11-deoxyprostaglandin F2α], the “Ulcer score, treated animals” value in assay [2] (setting [8]) was 2.2.

With `CCCCC[C@@H](/C=C/[C@H]1[C@H](C)CC(=O)[C@@H]1C/C=C\CCCC(=O)OC)OC(C)=O` [l-11α-methyl-11-deoxyprostaglandin-E2 15-O--acetyl methyl ester], the inhibition in vivo at 50 mg/kg in the assay with gastric acid secretion (intraduodenal) was determined as 63%. With `CCCCC[C@@H](/C=C/[C@H]1[C@H](SC)CC(=O)[C@@H]1C/C=C\CCCC(=O)OC)OC(C)=O` [l-11α-methylthio-11-deoxyprostaglandin-E2 15-O--acetate methyl ester], the “Ulcer score, treated animals” value in assay [2] (setting [7]) is 2.0. Further, the inhibition in vivo at 50 mg/kg with gastric acid secretion (intraduodenal) was 35%. For the molecule `CCCCC[C@H](O)/C=C/[C@H]1[C@H](SC)CC(=O)[C@@H]1C/C=C\CCCC(=O)OC` [l-11α-methylthio-11-deoxyprostaglandin-E2 methyl ester], the inhibition in vivo at 100 mg/kg with gastric acid secretion (intraduodenal, 100 mg/kg) was 55%.

Consider `CCCCC[C@H](O)/C=C/[C@@H]1[C@@H](C/C=C\CCCC(=O)O)[C@@H](O)C[C@H]1c1ccccc1` [l-11α-phenyl-11-deoxyprostaglandin-F2 α, l-11-deoxy-11α-phenylprostaglandin-F2 α], for which the “Ulcer score, treated animals” value in assay [2] (setting [8]) is 2.0. Take `CCCCC[C@H](O)/C=C/[C@H]1[C@@H](CO)C[C@H](O)[C@@H]1C/C=C\CCCC(=O)O` [l-11β-hydroxymethyl-11-deoxyprostaglandin-F2 α]: the inhibition in vivo at 10 mg/kg in assay [1] (setting [3]) was determined as 0%; in assay [1] (setting [4]) it was 43%.
